From patent publication US20200108031A1, “Treating Tumors Using TTFields Combined with ABT-751” (Novocure GmbH, priority 2018, published 2020)

Tests used:
A172 cells [1] = test: Growth of A172 cells, TTFields alone and in combination with ABT-751; assay type: cell-based; details: ABT-751 1 μM, 8 hours, TTFields 200 kHz, 3.3 V/cm, 72 hours (continuous or 3×16 hours), FIG. 1
Description: (§1) For the first two bars, both without (−) and with (+) ABT-751, TTFields were not applied. For the next two bars, both without (−) and with (+) ABT-751, TTFields were applied for three 16 hour intervals, and each of those 16 hour intervals was followed by an 8 hour interval during which TTFields were not applied. For the next two bars, both without (−) and with (+) ABT-751, TTFields were applied continuously for 72 hours. […] Data are mean±SEM; n≥5; Statistical significance was determined by one-way ANOVA; Tukey-corrected for multiple comparisons; *p<0.05, **p<0.01, ***p<0.001, ****p<0.0001. In all the experiments described herein, TTFields (200 kHz; 3.3V/cm) were applied using an Inovitro™ system.

A172 cells [2] = test: Colony formation (clonogenic survival) of A172 cells, TTFields alone and in combination with ABT-751; assay type: cell-based; details: ABT-751 1 μM, 8 hours, TTFields 200 kHz, 3.3 V/cm, 72 hours (continuous or 3×16 hours), FIG. 2
Description: as §1

COc1ccc(S(=O)(=O)Nc2cccnc2Nc2ccc(O)cc2)cc1 [ABT-751, N-[2-(4-hydroxyanilino)pyridin-3-yl]-4-methoxybenzenesulfonamide]
synergy with TTFields on cell growth (A172 cells [1]): synergizes
synergy with TTFields on colony formation (A172 cells [2]): synergizes
